Usually IC50 stands for the concentration needed to halve the response being measured.

Assay [1] concerns plasma ALP (80-90% containing TNAP). Nature of the assay: Inhibitory test of plasma TNAP activity in B6 mouse. Particulars: oral, average 0-6 h after administration. In kind it is in vivo. The procedure: After blood sampling from the tail vein using a heparin-treated hematocrit capillary tube (EM Meister Hematocrit Capillary Tube, AS ONE Corp.) (as the sample before compound administration), each test compound suspended in a 0.5% methylcellulose solution (powder purchased from Wako Pure Chemical Industries, Ltd. was adjusted to 0.5% with Otsuka distilled water) was administered orally to the mouse. 1, 2, 4, 6, and 24 hours after the administration, blood was collected from the tail vein using a heparin-treated hematocrit capillary tube to obtain a plasma sample. The plasma sample was added to an assay buffer (1 M Tris, 1 M MgCl2, 20 mM ZnCl2, and water, pH 7.5), and the mixture was left standing for 5 minutes. Then, the absorbance at 405 nm was measured and used as a blank. The substrate pNPP was added to the plasma sample and incubated at room temperature for 180 minutes. Then, the absorbance (ABS: 405 nm) was measured using a microplate reader (model plus 384, Molecular Devices, LLC), and the concentration of produced p-nitrophenol was calculated. The blank was subtracted from all measurement values to calculate TNAP activity at each time point with the TNAP activity of the sample before compound administration defined as 100%. The pharmaceutical effect of the test compound was evaluated by the average inhibition of plasma ALP (80-90% containing TNAP) activity for 6 hours from 0 hour to 6 hour after the administration of the test compound. It was calculated according to the following expression: 100−((plasma ALP activity at 0 hr+plasma ALP activity at 1 hr)*½+(plasma ALP activity at 1 hr+plasma ALP activity at 2 hr)*½+(plasma ALP activity at 2 hr+plasma ALP activity at 4 hr)*2/2+(plasma ALP activity at 4 hr+plasma ALP activity at 6 hr)*2/2)/6 The results are shown in Table 2.

The next assay has as its target human TNAP (Homo sapiens (Human), UniProt P05186). As to the kind of experiment: Inhibitory test of TNAP activity (pNPP substrate, p-nitrophenol production). Particulars: human TNAP from transfected COS1 culture supernatant, 60 minutes at room temperature. The assay is classed as biochemical. Here is the method:
COS1 cells (DS Pharma Biomedical Co., Ltd.) were transfected with human TNAP (OriGene Technologies, Inc.) using Lipofectamine LTX & Plus reagent (Invitrogen Corp.). On the next day, the medium was replaced with a fresh medium, and the cells were cultured in an incubator for 3 days. After 3 days, the culture supernatant was collected and concentrated by centrifugation at 5000 G for 30 minutes using Amicon 14, 10^4 cut (Merck Millipore). The concentrated culture supernatant was dialyzed against 5 L of 50 mM Tris/200 mM NaCl/1 mM MgCl2/20 μM ZnCl2 twice and used as an enzyme source (enzyme solution). The substrate pNPP (ProteoChem Inc.) was adjusted to 3.1 mM with Milli-Q water, and a solution of each test compound dissolved in dimethyl sulfoxide (DMSO; Wako Pure Chemical Industries, Ltd.) by 6 serial dilutions at a 5-fold common ratio from 100 μM, or DMSO was added thereto at a final concentration of 1% by volume. The enzyme solution adjusted to 2 μg/mL with an assay buffer (200 mM Tris/2 mM MgCl2/0.04 mM ZnCl2/0.01% Tween 20) was added in the same amount of the substrate solution and incubated at room temperature for 60 minutes. Then, the absorbance (ABS: 405 nm) was measured using a microplate reader (model plus 384, Molecular Devices, LLC), and the concentration of produced p-nitrophenol was calculated.

Structures are written as SMILES.

Sequence of human TNAP (P05186 18-524): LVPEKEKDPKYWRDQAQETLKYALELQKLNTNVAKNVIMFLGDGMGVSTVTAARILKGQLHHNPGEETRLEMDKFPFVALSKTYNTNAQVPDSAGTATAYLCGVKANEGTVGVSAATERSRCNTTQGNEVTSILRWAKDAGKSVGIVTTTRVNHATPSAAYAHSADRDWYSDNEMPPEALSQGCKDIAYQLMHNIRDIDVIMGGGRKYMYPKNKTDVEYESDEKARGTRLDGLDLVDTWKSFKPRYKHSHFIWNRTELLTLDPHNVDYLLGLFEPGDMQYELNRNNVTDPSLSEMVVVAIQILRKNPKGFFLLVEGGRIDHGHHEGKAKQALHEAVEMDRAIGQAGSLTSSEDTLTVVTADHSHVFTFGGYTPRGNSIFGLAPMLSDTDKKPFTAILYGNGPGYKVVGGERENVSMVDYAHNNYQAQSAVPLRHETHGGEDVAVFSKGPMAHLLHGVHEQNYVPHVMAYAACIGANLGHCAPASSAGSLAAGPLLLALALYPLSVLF

`CNC(=O)O[C@H]1C[C@@H]2COc3ncc([N-]S(=O)(=O)c4cc(Cl)ccc4OC)cc3C(=O)N2C1.[K+]` [Example 49, Potassium [(5-chloro-2-methoxyphenyl)sulfonyl]{(8S,9aR)-8-[(methylcarbamoyl)oxy]-5-oxo-8,9,9a,10-tetrahydro-5H,7H-pyrido[3,2-f]pyrrolo[2,1-c][1,4]oxazepin-3-yl}azanide]: in assay [1] (dose 1 mg/kg), the “Plasma ALP inhibition (6 h ave. inhibition %)” value came out at 52.8%.

For the compound `O=C1c2cc([N-]S(=O)(=O)c3cc(Cl)ccc3OC(F)(F)F)cnc2OC[C@H]2C[C@H](O)CN12.[K+]` [Example 33, Potassium {[5-chloro-2-(trifluoromethoxy)phenyl]sulfonyl}[(8S,9aR)-8-hydroxy-5-oxo-8,9,9a,10-tetrahydro-5H,7H-pyrido[3,2-f]pyrrolo[2,1-c][1,4]oxazepin-3-yl]azanide], the “Plasma ALP inhibition (6 h ave. inhibition %)” value in assay [1] (dose 0.3 mg/kg) came out at 59.0%.

For `COC(=O)N[C@@H]1C[C@@H]2COc3ncc([N-]S(=O)(=O)c4cc(Cl)ccc4OC)cc3C(=O)N2C1.[K+]` [Example 51, Potassium [(5-chloro-2-methoxyphenyl)sulfonyl]{(8R,9aR)-8-[(methoxycarbonyl)amino]-5-oxo-8,9,9a,10-tetrahydro-5H, 7H-pyrido[3,2-f]pyrrolo[2,1-c][1,4]oxazepin-3-yl}azanide], the “Plasma ALP inhibition (6 h ave. inhibition %)” value in assay [1] (dose 1 mg/kg) is on record as 59.7%.

In the case of `CCOc1ncc(F)cc1S(=O)(=O)[N-]c1cnc2c(c1)-c1ccnn1[C@@H](C)CO2.[K+]` [Example 25, potassium [(2-ethoxy-5-fluoropyridin-3-yl)sulfonyl][(5S)-5-methyl-5,6-dihydropyrazolo[1,5-d]pyrido[3,2-f][1,4]oxazepin-10-yl]azanide], the “Plasma ALP inhibition (6 h ave. inhibition %)” value in assay [1] (dose 3 mg/kg) came out at 55.5%.

As to `CCOc1ncc(F)cc1S(=O)(=O)[N-]c1cnc2c(c1)-c1ccnn1CCO2.[K+]` [Example 15, Potassium 5,6-dihydropyrazolo[1,5-d]pyrido[3,2-f][1,4]oxazepin-10-yl[(2-ethoxy-5-fluoropyridin-3-yl)sulfonyl]azanide], the “Plasma ALP inhibition (6 h ave. inhibition %)” value in assay [1] (dose 3 mg/kg) was 61.4%.

`COc1ccc(Cl)cc1S(=O)(=O)[N-]c1cnc2c(c1)-c1ccnn1CCO2.[K+]` [Example 8, Potassium [(5-chloro-2-methoxyphenyl)sulfonyl](5,6-dihydropyrazolo[1,5-d]pyrido[3,2-f][1,4]oxazepin-10-yl)azanide]: in assay [1] (dose 3 mg/kg), the “Plasma ALP inhibition (6 h ave. inhibition %)” value was determined as 29.4%.

Turning to `COc1ccc(Cl)cc1S(=O)(=O)[N-]c1cnc2c(c1)-c1nnc(C)n1CCO2.[K+]` [Example 2, Potassium [(5-chloro-2-methoxyphenyl)sulfonyl](3-methyl-5,6-dihydropyrido[3,2-f][1,2,4]triazolo[4,3-d][1,4]oxazepin-10-yl)azanide], the “Plasma ALP inhibition (6 h ave. inhibition %)” value in assay [1] (dose 1 mg/kg) amounted to 34.4%.

For `COc1ccc(Cl)cc1S(=O)(=O)Nc1cnc2c(c1)C(=O)N1C[C@H](O)C[C@H]1CO2` [Example 29, 5-chloro-N-[(8R,9aS)-8-hydroxy-5-oxo-8,9,9a,10-tetrahydro-5H,7H-pyrido[3,2-f]pyrrolo[2,1-c][1,4]oxazepin-3-yl]-2-methoxybenzenesulfonamide], it took 7.1 nM to reach half-maximal inhibition against human TNAP (IC50). In other words, the single-digit nanomolar range.

Take `COc1ccc(Cl)cc1S(=O)(=O)Nc1cnc2c(c1)CN1C(=O)[C@H](O)C[C@H]1CO2` [Example 53, 5-chloro-N-[(8R,9aS)-8-hydroxy-7-oxo-8,9,9a,10-tetrahydro-5H,7H-pyrido[3,2-f]pyrrolo[2,1-c][1,4]oxazepin-3-yl]-2-methoxybenzenesulfonamide]: 4.3 nM corresponded to half-maximal inhibition against human TNAP (IC50).

`O=C1c2cc(NS(=O)(=O)c3cc(Cl)ccc3OC(F)(F)F)cnc2OC[C@H]2C[C@@H](O)CN12` [Example 37, 5-chloro-N-[(8R,9aR)-8-hydroxy-5-oxo-8,9,9a,10-tetrahydro-5H,7H-pyrido[3,2-f]pyrrolo[2,1-c][1,4]oxazepin-3-yl]-2-(trifluoromethoxy)benzenesulfonamide] had an IC50 at human TNAP of 1.4 nM.

In turn, `CCOc1ncc(Cl)cc1S(=O)(=O)Nc1cnc2c(c1)-c1ccnn1CCO2` [Example 13, 5-chloro-N-(5,6-dihydropyrazolo[1,5-d]pyrido[3,2-f][1,4]oxazepin-10-yl)-2-ethoxypyridine-3-sulfonamide] displayed an IC50 against human TNAP of 5.1 nM.

At human TNAP, `COc1ccc(F)cc1S(=O)(=O)Nc1cnc2c(c1)C(=O)N1C[C@H](O)C[C@@H]1CO2` [Example 36, 5-fluoro-N-[(8R,9aR)-8-hydroxy-5-oxo-8,9,9a,10-tetrahydro-5H,7H-pyrido[3,2-f]pyrrolo[2,1-c][1,4]oxazepin-3-yl]-2-methoxybenzenesulfonamide] had an IC50 of 1.5 nM. This IC50 lies about 3.4-fold lower than the previous one.

Turning to `CCOc1ncc(F)cc1S(=O)(=O)Nc1cnc2c(c1)-c1ccnn1CCO2` [Example 14, N-(5,6-dihydropyrazolo[1,5-d]pyrido[3,2-f][1,4]oxazepin-10-yl)-2-ethoxy-5-fluoropyridine-3-sulfonamide], the half-maximal inhibitory concentration (IC50) on human TNAP was determined as 3.6 nM.

Compound `CCOc1ccc(F)cc1S(=O)(=O)Nc1cnc2c(c1)CN1C(=O)COC[C@H]1CO2` [Example 61, 2-ethoxy-5-fluoro-N-[(10aS)-7-oxo-7,8,10a,11-tetrahydro-5H,10H-[1,4]oxazino[3,4-c]pyrido[3,2-f][1,4]oxazepin-3-yl]benzenesulfonamide] registered a half-inhibitory concentration (IC50) against human TNAP of 0.6 nM.

`COc1ncc(Cl)cc1S(=O)(=O)Nc1cnc2c(c1)-c1ccnn1CCO2` [Example 12, 5-chloro-N-(5,6-dihydropyrazolo[1,5-d]pyrido[3,2-f][1,4]oxazepin-10-yl)-2-methoxypyridine-3-sulfonamide]: the IC50 at human TNAP came to 8.5 nM.

`COc1ccc(Cl)cc1S(=O)(=O)Nc1cnc2c(c1)C(=O)N1C[C@H](O)C[C@@H]1CO2` [Example 35, 5-chloro-N-[(8R,9aR)-8-hydroxy-5-oxo-8,9,9a,10-tetrahydro-5H,7H-pyrido[3,2-f]pyrrolo[2,1-c][1,4]oxazepin-3-yl]-2-methoxybenzenesulfonamide]: it took 0.9 nM to reach half-maximal inhibition against human TNAP (IC50).

Take `CCOc1ccc(F)cc1S(=O)(=O)Nc1cnc2c(c1)-c1ccnn1CCO2` [Example 9, N-(5,6-dihydropyrazolo[1,5-d]pyrido[3,2-f][1,4]oxazepin-10-yl)-2-ethoxy-5-fluorobenzenesulfonamide]: inhibition on human TNAP was half-maximal at 3.4 nM (IC50).

Turning to `COc1ccc(Cl)cc1S(=O)(=O)Nc1cnc2c(c1)-c1ccnn1CCO2` [Example 7, 5-chloro-N-(5,6-dihydropyrazolo[1,5-d]pyrido[3,2-f][1,4]oxazepin-10-yl)-2-methoxybenzenesulfonamide], the IC50 against human TNAP was determined as 6.5 nM.

On to `COc1ccc(Cl)cc1S(=O)(=O)Nc1cnc2c(c1)CN1C(=O)OC[C@H]1CO2` [Example 58, 5-chloro-2-methoxy-N-[(9aR)-7-oxo-9a,10-dihydro-5H, 9H-[1,3]oxazolo[4,3-c]pyrido[3,2-f][1,4]oxazepin-3-yl]benzenesulfonamide], for which the IC50 against human TNAP is 3.8 nM.

For `O=C1[C@@H](O)C[C@H]2COc3ncc(NS(=O)(=O)c4cc(Cl)ccc4OC(F)(F)F)cc3CN12` [Example 56, 5-chloro-N-[(8S,9aS)-8-hydroxy-7-oxo-8,9,9a,10-tetrahydro-5H,7H-pyrido[3,2-f]pyrrolo[2,1-c][1,4]oxazepin-3-yl]-2-(trifluoromethoxy)benzenesulfonamide], the IC50 against human TNAP turned out to be 1.4 nM.

As for `COCCOc1ccc(F)cc1S(=O)(=O)Nc1cnc2c(c1)-c1ccnn1CCO2` [Example 11, N-(5,6-dihydropyrazolo[1,5-d]pyrido[3,2-f][1,4]oxazepin-10-yl)-5-fluoro-2-(2-methoxyethoxy)benzenesulfonamide], the concentration for half-maximal inhibition (IC50) on human TNAP was determined as 12.6 nM. This IC50 is about 9-fold higher than that of the compound before.

The values above are taken from patent publication US11046710B2, “Sulfonamide compounds” (DAIICHI SANKYO COMPANY, LIMITED, priority 2016, dated 2021).
